Experimental findings from patent US20130225683A1, “Compounds and Pharmaceutical Compositions for Uses in Diabetes” (PROMETIC BIOSCIENCES INC., priority 2010, published 2013) are described below.

For assay [1], the system named is diabetic mouse (db/db) model. Put plainly: Diabetic db/db uninephrectomized mouse model, oral Compound I. In kind it is in vivo, male Lepr db (db/db) mice. The settings on record: 100 mg/kg per day oral; day 69 to day 128; FIG. 7. As for the experimental part: Male Lepr db (db/db) and age- and sex-matched control mice with the same genetic background (C57BL/6) were used. Animals were randomized using blood sugar measurement (5-hours starved) at week 6 and uninephrectomy (removal of right kidney) was performed. Sham animals (C57BL/6) underwent exposition of the right kidney. Animals that underwent the sham operation were given vehicle (saline) and were used as negative controls. C57BL/6 mice that were uninephrectomized were given vehicle and were used as positive controls. Db/db mice were treated with oral administration of compound I at 100 mg/kg per day for 131 days. Serum glucose was measured every two to four weeks. Oral glucose tolerance test was performed on 16-hours starved mice at day 112. […] Fluorescence was determined and GFR calculated based on a two-compartment model using nonlinear regression curve-fitting software.

Assay [2] has as its system streptozotocin-induced diabetes. Put plainly: Streptozotocin-induced diabetes model in rats, oral Compound I. In kind it is in vivo, male Sprague Dawley rats. As for the experimental part: Diabetes was induced by a single intraperitoneal administration of streptozotocin (65 mg/kg of body weight) in fasted male Sprague Dawley rats, weighing approximately 200-250 g. After 48 hours, rats with plasma glucose more than 10 mmole/L were enrolled and treated with vehicle or compounds. Streptozotocin is well known to induce […] toxicity. […] Ketonuria is a medical condition in which ketone bodies are present in the urine. It is seen in conditions in which the body produces excess ketones as an alternative source of energy. It is seen during starvation or more commonly in diabetes. […] Proteinuria is a medical condition in which an excess of protein is present in the urine. Proteinuria may be a sign of renal kidney damage. Since serum proteins are readily reabsorbed from urine, the presence of excess protein indicates either an insufficiency of absorption or impaired filtration. Diabetics may suffer from damaged nephrons and develop proteinuria. The most common cause of proteinuria is diabetes. […] Despite the available therapies of glycemic and blood pressure control, many patients continue to show progressive renal damage. Therefore, it is extremely important to identify novel interventions to halt the progression of diabetic nephropathy.

Assay [3] deals with 5/6 nephrectomized (Nx) rat model. Kind of assay: 5/6 nephrectomized (Nx) rat model, Compound XIV by gastric gavage once daily. The settings on record: Nx rats, p<0.01. Format: in vivo, male Wistar rats. An excerpt: Male 6 week-old Wistar rats were subjected to 5/6 nephrectomy or sham operations. Under fluothane anesthesia, renal ablation was achieved by removing two-thirds of the left kidney followed by a right unilateral nephrectomy 7 days later. Sham rats underwent exposition of the kidneys and removal of the perirenal fat. Animals that underwent the sham operation were given vehicle (saline) and were used as controls. Nx animals were divided in groups receiving the vehicle or Compound XIV. Saline or Compound XIV was given by gastric gavage once daily up to the sacrifice. Serum glucose was measured every three weeks in order to assess the effect of the compound on serum glucose concentration in a renal disease model. Rats were sacrificed at day 126.

Entries after “also recorded” stand apart in the source; their conditions may differ.

For the compound `CCCCCc1cccc(CC(=O)[O-])c1.[Na+]` [Compound I], the “serum glucose concentration (percent increase vs C57BL/6 sham)” value in assay [1] is on record as “significant decrease”. Moreover, the “level of increase in blood glucose (delta)” value in assay [2] (100 mg/kg oral, day 2 to day 62 post-streptozotocin, p<0.05, FIG. 1) is on record as “decrease significantly”. The “urinary protein (proteinuria)” value in assay [2] (100 mg/kg oral, vs STZ+ (diabetic) animals, FIG. 3) is reported as “completely abbrogated the presence of urinary protein”. The “ketone bodies in urine” value in assay [2] (streptozotocin-diabetic rats, treated vs untreated, p<0.05, FIG. 2) is recorded as “significantly reduce the appearance of ketone bodies in the urine; also recorded: significantly (p<0.05) reduced”.
On to `CCCCCCCCC(Oc1ccc(C(=O)CCCCCCC)cc1)C(=O)[O-].[Na+]` (racemic) [Compound XIV, Sodium (RS)-2-[4-octanoylphenoxy]decanoate], for which, in assay [3] (10 mg/kg, day 84 and 126, FIG. 6), the urinary proteins concentration entry is “significant (p<0.01) decrease”. Also, in assay [3] (50 mg/kg, day 42 to day 126, FIG. 5), the serum glucose concentration result is “significant (p<0.01) decrease”.
